Data taken from publication PMC5571287 (Antimicrobial Agents and Chemotherapy, 2017).
Read-outs that look alike come from different tables or passages of the source.

Key:
RSV A2 [1] = assay: RSV F protein cell-based ELISA in BEAS-2B cells, washout / nonwashout; conditions: human respiratory syncytial virus, read-out: IC50, F protein expressed on cell surfaces
Description: Approximately 72 h after BEAS-2B cells were seeded in 96-well plates (at 4 × 10^4/ml; 100 μl/well), the medium in the plates was removed and replaced with 200 μl of fresh LHC-8 medium. […] For nonwashout plates, the compounds and DMSO (1 μl/well) were applied immediately after infection. On day 3 postinfection, supernatant was aspirated and the cells were fixed with 4% formaldehyde (100 μl in PBS solution) for 20 min at room temperature (RT), washed three times with wash buffer (WB) (200 μl; PBS containing 0.05% Tween 20), and incubated with blocking buffer (100 μl; 5% bovine serum albumin [BSA] in wash buffer) for 1 h. […] Abcam plc, Cambridge, UK). After a washing, cells were incubated with a horseradish peroxidase (HRP)-conjugated anti-mouse IgG antibody (50 μl/well; 1:2,000, Abcam) for 1 h. Tetramethylbenzidine (TMB) substrate (50 μl) was then added after two washings with WB and one with PBS, and the reaction was stopped by the addition of aqueous sulfuric acid (2 N; 50 μl/well). The resultant signal was determined colorimetrically (OD at 450 nm [OD450] with a reference wavelength of 655 nm) in a microplate reader (Multiskan FC; Thermo Fisher Scientific). Cells were then washed, and 0.5% crystal violet solution ([…]) was applied for 30 min. […] The measured F protein signals (OD450 − OD655 readings) were corrected for cell number (OD595 readings) by dividing the OD450–655 by the OD595 readings.

RSV B WST = assay: CPE assay, RSV B Washington in HEp-2 cells (resazurin); assay type: cell-based, respiratory syncytial virus; conditions: human respiratory syncytial virus, HEp-2
RSV A Long = assay: microbe, parasite or virus in culture; assay type: cell-based, respiratory syncytial virus
[2] = target: RSV RdRp activity in crude RSV A L-P complex (Human respiratory syncytial virus A, UniProt P28887); assay: biochemical; conditions: read-out: RdRp activity IC90
[3] = system: known RSV A clinical isolates; assay: CPE assays, known RSV A clinical isolates in HEp-2; assay type: cell-based; conditions: human respiratory syncytial virus, read-out: IC50, range over known RSV A clinical isolates
Description: For RSV A 2001/3-12, 1998/3-2, and USU⃥v1225, CPE was induced in HEp-2 cells for 7 days and the plates were then stained with neutral red dye for approximately 2 h. The intracellular incorporated dye was extracted in 50:50 Sorensen citrate buffer-ethanol and the absorbance read on a spectrophotometer. The optical density (OD) of test wells was converted to percentage of cell and virus controls. […] The virus inocula were ∼63 50% cell culture infectious doses (CCID50) per well for 2001/3-12, ∼40 CCID50/well for 1998/3-2, and ∼32 CCID50/well for USU\v1225. This assay was conducted in Utah State University (Logan, UT).
For known clinical strains (RSV A 1997/12-35, 2001/2-20, 200/3-4, and Memphis 37), a 384-well-format resazurin-based CPE assay was conducted.

[4] = system: RSV A2 protein expression; assay: Western blotting of RSV proteins in RSV A2-infected HEp-2 cells; assay type: cell-based, respiratory syncytial virus; conditions: HEp-2, 3 days postinfection
Description: HEp-2 cells were seeded in 6-well plates at a density of 3 × 10^5/well (2 ml/well) 24 h before experimentation and were then treated with compounds (10 μl/well), simultaneously infected with RSV A2 (MOI, 1), and incubated for 72 h. Cells were washed with PBS and collected by scraping in 200 μl of PBS with protease and phosphatase inhibitor cocktail (PPI; Sigma-Aldrich; MSSAFE-1VL 1× in PBS), followed by two further washes with 200 μl of PBS, and the cell suspension was centrifuged to pellet. Radioimmunoprecipitation assay (RIPA) buffer (50 μl) containing 50 mM Tris-HCl (pH 7.4), 150 mM NaCl, 1% (vol/vol) NP-40, 0.25% (wt/vol) sodium deoxycholate, and PPI was applied to the cell pellet, which was vortexed and incubated for 30 min, on ice with further cell disruptions every 10 min. The protein concentration of the supernatant after centrifugation was determined by Bradford assay. The lysate containing 30 μg of protein was separated by electrophoresis on a 4 to 12% gradient bis-Tris polyacrylamide gel (Life Technologies; NP0335BOX) and then transferred to a nitrocellulose membrane using the iBlot gel transfer device (Life Technologies). The membrane was blocked with blocking buffer (TBS/T; 20 mM TBS and 0.1% Tween 20 with 5% skim milk) for 1 h at RT and incubated with anti-RSV F protein antibody (Abcam ab43812; 1:1,000) overnight at 4°C for F protein detection. […]

[5] = system: Hepatitis C virus GT1b replicon; assay: microbe, parasite or virus in culture; assay type: cell-based
RSV A2 [6] = assay: RSV A2-infected BALB/c mice, virus load in lung homogenate; assay type: in vivo
[7] = system: human mitochondrial polymerase; assay: Human polymerase inhibition in vitro (data not shown); assay type: biochemical; conditions: up to 1 μM
RSV A2 [8] = conditions: human respiratory syncytial virus
[9] = intranasal 0.2 mg/ml (0.19 mg/kg)

RSV RdRp activity in crude RSV A L-P complex, sequence (P28887 whole entry): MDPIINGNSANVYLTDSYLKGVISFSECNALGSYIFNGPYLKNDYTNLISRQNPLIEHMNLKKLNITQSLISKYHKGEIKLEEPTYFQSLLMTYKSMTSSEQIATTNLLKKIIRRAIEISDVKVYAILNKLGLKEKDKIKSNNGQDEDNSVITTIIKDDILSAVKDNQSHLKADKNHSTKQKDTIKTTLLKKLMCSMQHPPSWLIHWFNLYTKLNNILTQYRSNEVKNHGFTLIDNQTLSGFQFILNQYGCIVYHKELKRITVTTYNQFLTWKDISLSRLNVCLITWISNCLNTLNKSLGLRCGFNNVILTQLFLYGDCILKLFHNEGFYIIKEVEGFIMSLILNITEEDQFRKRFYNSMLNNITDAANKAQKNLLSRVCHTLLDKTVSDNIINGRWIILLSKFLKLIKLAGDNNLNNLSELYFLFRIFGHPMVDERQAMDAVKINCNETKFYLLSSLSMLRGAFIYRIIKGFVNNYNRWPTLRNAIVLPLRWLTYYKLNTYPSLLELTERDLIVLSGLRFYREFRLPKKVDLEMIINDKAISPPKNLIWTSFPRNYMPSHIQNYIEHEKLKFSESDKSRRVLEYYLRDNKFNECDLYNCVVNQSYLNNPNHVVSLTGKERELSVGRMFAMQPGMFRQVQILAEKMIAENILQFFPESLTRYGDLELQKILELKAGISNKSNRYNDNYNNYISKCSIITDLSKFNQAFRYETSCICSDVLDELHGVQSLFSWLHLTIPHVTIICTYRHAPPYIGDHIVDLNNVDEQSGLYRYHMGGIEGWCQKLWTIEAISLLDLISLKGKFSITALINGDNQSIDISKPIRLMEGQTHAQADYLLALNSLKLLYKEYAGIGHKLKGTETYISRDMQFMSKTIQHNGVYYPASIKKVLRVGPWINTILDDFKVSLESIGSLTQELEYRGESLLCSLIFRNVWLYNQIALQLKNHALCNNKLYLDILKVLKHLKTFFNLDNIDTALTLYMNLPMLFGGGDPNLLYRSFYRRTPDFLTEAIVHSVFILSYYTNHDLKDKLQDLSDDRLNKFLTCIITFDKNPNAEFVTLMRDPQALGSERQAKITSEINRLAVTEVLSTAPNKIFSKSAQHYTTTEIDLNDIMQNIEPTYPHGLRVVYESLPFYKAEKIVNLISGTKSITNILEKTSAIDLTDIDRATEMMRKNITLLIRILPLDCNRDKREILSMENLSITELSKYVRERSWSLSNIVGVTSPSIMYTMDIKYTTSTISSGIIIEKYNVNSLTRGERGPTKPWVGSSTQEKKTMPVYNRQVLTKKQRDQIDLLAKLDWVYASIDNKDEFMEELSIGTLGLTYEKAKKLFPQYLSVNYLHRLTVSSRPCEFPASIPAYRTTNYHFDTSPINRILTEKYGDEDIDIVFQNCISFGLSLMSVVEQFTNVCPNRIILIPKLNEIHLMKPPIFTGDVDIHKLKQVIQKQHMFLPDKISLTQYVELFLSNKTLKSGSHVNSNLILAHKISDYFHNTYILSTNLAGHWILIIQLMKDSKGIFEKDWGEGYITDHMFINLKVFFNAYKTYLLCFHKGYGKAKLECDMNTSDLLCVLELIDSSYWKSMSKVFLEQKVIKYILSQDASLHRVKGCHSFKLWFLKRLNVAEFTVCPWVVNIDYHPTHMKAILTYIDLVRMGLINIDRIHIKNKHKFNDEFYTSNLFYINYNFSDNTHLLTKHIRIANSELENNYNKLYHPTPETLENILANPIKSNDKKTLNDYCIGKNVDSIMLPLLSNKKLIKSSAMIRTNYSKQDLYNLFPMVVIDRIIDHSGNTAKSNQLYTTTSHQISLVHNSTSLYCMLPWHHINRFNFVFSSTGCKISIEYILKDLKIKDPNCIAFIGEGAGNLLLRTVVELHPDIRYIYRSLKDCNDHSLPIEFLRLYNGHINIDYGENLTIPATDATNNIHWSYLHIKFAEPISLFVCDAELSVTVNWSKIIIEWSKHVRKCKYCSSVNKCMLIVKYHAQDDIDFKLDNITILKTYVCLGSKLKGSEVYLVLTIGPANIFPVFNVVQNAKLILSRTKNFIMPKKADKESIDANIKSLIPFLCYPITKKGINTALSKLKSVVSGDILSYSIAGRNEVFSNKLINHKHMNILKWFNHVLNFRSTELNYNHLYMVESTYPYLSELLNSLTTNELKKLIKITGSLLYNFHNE
RSV RdRp activity in crude RSV A L-P complex, sequence (P03421 whole entry, further chain): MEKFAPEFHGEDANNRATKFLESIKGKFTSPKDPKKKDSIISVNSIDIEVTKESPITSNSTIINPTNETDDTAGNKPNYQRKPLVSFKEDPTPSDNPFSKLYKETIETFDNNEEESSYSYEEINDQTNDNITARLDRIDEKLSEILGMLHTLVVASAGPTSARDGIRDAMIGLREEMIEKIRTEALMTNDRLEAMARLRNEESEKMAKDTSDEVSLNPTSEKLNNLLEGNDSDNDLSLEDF

Question: How did the IC50 (RSV A2 [1]; 2 h exposure then 24-h washout before inoculation) turn out when `Cc1cnc(N2CC3(CCOCC3)C2)c(C(=O)Nc2ccc(C(=O)N3CCc4cc(C(=O)Nc5c(C)cccc5F)sc4-c4ccccc43)cc2)c1` [PC786, N-(2-fluoro-6-methylphenyl)-6-(4-(5-methyl-2-(7-oxa-2-azaspiro[3.5]nonan-2-yl)nicotinamido)benzoyl)-5,6-dihydro-4H-benzo[b]thieno[2,3-d]azepine-2-carboxamide] was run?
Answer: 0.792 nM

Question: What about the IC50 (RSV A2 [1]; nonwashout (sustained presence of drug)) of the same compound?
Answer: 0.129 nM

Question: And the IC50 (RSV B WST)?
Answer: 27.3 ± 0.77 nM

Question: And the IC90 (RSV B WST)?
Answer: 57.1 ± 3.87 nM

Question: What about the “IC90 or IC95” value (RSV A Long; HEp-2) of the same compound?
Answer: <420 pM

Question: What about the IC50 (RSV A Long; human respiratory syncytial virus, HEp-2, plaque reduction, applied 2 h before infection) of the same compound?
Answer: < 0.42 nM

Question: What about the IC90 [2] of the same compound?
Answer: 21.8 nM

Question: What about the IC50 [3] of the same compound?
Answer: 0.14 to 3.2 nM

Question: What about the “concentration above which no or little G, N, P, M, M2-1, and F1 protein bands were visible” value [4] of the same compound?
Answer: greater than 14 nM

Question: And the inhibition at 14 µM ([5]; GT1B, Huh-7, HCV replicon assay, at 14 μM, read-out: maximum inhibition achieved)?
Answer: 74%

Question: What about the IC50 ([5]; Huh-7, GT1b replicon) of the same compound?
Answer: 320 nM

Question: And the “IC90 or IC95” value ([5]; Huh-7, GT1b replicon)?
Answer: >14 µM

Question: And the “Virus titer of lung homogenate, interquartile range” value (RSV A2 [6]; [9])?
Answer: 1.9–3.0 log PFU/ml

Question: What about the “Virus titer of lung homogenate, median” value (RSV A2 [6]; [9]) of the same compound?
Answer: 2.5 log PFU/ml

Question: What about the “Virus titer of lung homogenate, geometric mean ± SD” value (RSV A2 [6]; intranasal 0.2 mg/ml (0.19 mg/kg) once daily days −1 to 3) of the same compound?
Answer: 2.4 ± 0.59 log PFU/ml

Question: What about the “Virus titer of lung homogenate, median” value (RSV A2 [6]; intranasal 2.0 mg/ml (1.9 mg/kg)) of the same compound?
Answer: <0.33 (LOQ) log PFU/ml

Question: And the “Virus titer of lung homogenate, median” value (RSV A2 [6]; intratracheal 2.0 mg/ml (3.2 mg/kg))?
Answer: <0.33 (LOQ) log PFU/ml

Question: And the “inhibitory effects on human mitochondrial polymerase” value [7]?
Answer: no measurable inhibitory effects

Question: And the IC50 (RSV A2 [8]; HEp-2, read-out: PCR IC50 (0.3 Log PFUe reduction) (converted))?
Answer: 1.52 nM

Question: What about the IC90 (RSV A2 [8]; HEp-2, read-out: PCR IC90 (1 Log PFUe reduction) (converted)) of the same compound?
Answer: 1.69 nM
